System: Raoultella (Klebsiella) terrigena (R. terrigena, ATCC 33257)
Assay: Anti-microbial activity test (AMA) in water bottles vs Raoultella terrigena
Assay type: cell-based
Conditions: AWT018; without SC

Structure (SMILES): CCOC(C)=O [EtOAc, Ethyl acetate]
- antimicrobial potential of formulation additives: no antimicrobial potential
